From patent US4246273A, “1,5-Disubstituted imidazolid-4-ones” (Beecham Group Limited, priority 1978, dated 1981)

Test system: indomethacin induced gastric damage
Assay: Anti-ulcer activity: inhibition of indomethacin induced gastric damage in the rat
Format: in vivo
Conditions: 100 mg/kg orally, 30 minutes prior to indomethacin 15 mg/kg s.c.; score scale 1-9 after 4 hours; vehicle control 3.71 ± 0.80; P<0.01 (Mann Witney test)
Procedure: Anti-ulcer activity was assessed by the inhibition of indomethacin induced gastric damage in the rat according to the method of Eleghe (1974) Israeli J. Med. Sci. 10. 1451. Rats were starved overnight and given 15 mg/kg indomethacin subcutaneously and sacrificed 4 hours later. Stomachs were reflated with n. saline, cut along the greater curvature pinned out and scored for gastric damage by the following system:
Score 1-3--according to degree of erythema and slight haemorrhage.
Score 4-6--according to degree of muscosal erosion.
Score 7-9--according to depth of gastric damage.
Groups of 7 rats were used for each treatment and the test compound or vehicle were administered 30 minutes prior to giving the indomethacin. Dose of test compound was 100 mg/kg orally and control groups receiving vehicle only were obtained using the above scoring system and the Mann Witney test applied for significance of difference between the values obtained with the treatments.

Which “Test Compound Mean Score ± S.E. of Mean (gastric damage)” value does the source give for `CCCCCCC(C)(O)CCN1CN(C)C(=O)C1CCCCCCC(=O)OC` (stereo not shown) [Compound 6, 1-(3'-hydroxy-3'-methyl-n-nonyl)-3-methyl-5-(6"-methoxycarbonyl-n-hexyl)-4-imidazolidone] here?
The value was 0.71 ± 0.42.
